Reference: patent US20220040324A1, “COMBINATION OF ANTIBODY-DRUG CONJUGATE AND KINASE INHIBITOR” (DAIICHI SANKYO COMPANY, LIMITED, priority 2018, published 2022)

How the values were obtained:
[1] = tested on: KPL-4 cells; test: Antitumor test (7): nude mice with subcutaneously transplanted KPL-4 cells; format: in vivo, human; details: single administration
Experimental: (§1) Mouse: 5 to 6-week-old BALB/c nude mice (Charles River Laboratories Japan, Inc.) were subjected to experiment.
(§2) Assay and calculation expression: In all of the studies, the major axis and minor axis of a tumor were measured twice a week by using an electronic digital caliper (CD15-CX, Mitutoyo Corp.), and the tumor volume (mm^3) was calculated. The calculation expression is as shown below.
(§3) Tumor volume (mm^3)=1/2×Major axis (mm)×[Minor axis (mm)]^2
KPL-4 cells, a human breast cancer cell line, obtained from Dr. Junichi Kurebayashi, Kawasaki Medical School (British Journal of Cancer. (1999)79 (5/6). 707-717) were suspended in physiological saline, and 1.5×10^7 cells were subcutaneously transplanted to the right flank of each female nude mouse, and the mice were randomly grouped 17 days after the transplantation (Day 0). The antibody-drug conjugate (2) was diluted with ABS buffer, and intravenously administered to the tail vein of each mouse once a week at a dose of 10 mg/kg (a liquid volume of 10 mL/kg) for three weeks (Days 0, 7, 14). Neratinib was suspended in 0.5% methyl cellulose, and orally administered once a day, five times a week, at a dose of 20 mg/kg (a liquid volume of 10 mL/kg) for two weeks. Single administration groups and a combined administration group with the antibody-drug conjugate (2) and neratinib, and an ABS administration group as a control group were established.

[2] = tested on: MDA-MB-453 cells; test: Antitumor test (9): nude mice with subcutaneously transplanted MDA-MB-453 cells; format: in vivo, human; details: single administration
Experimental: as §1, §2, §3
Palbociclib was suspended in 0.5% methyl cellulose, and orally administered once a day, five times a week, at a dose of 50 mg/kg (a liquid volume of 10 mL/kg) for three weeks from Day 0.

[3] = tested on: MDA-MB-453 cells; test: Antitumor test (10): nude mice with subcutaneously transplanted MDA-MB-453 cells; format: in vivo, human; details: single administration
Experimental: as §1, §2, §3
MDA-MB-453 cells, a human breast cancer cell line, obtained from ATCC were suspended in Matrigel basement membrane matrix, and 1×10^7 cells were subcutaneously transplanted to the right flank of each female nude mouse, and the mice were randomly grouped 7 days after the transplantation (Day 0). The antibody-drug conjugate (2) was diluted with ABS buffer, and intravenously administered to the tail vein of each mouse once a week at a dose of 1 mg/kg (a liquid volume of 10 mL/kg) for three weeks (Days 0, 7, 14). Alpelisib was suspended in 0.5% methyl cellulose, and orally administered once a day, five times a week, at a dose of 25 mg/kg (a liquid volume of 10 mL/kg) for three weeks from Day 0. Single administration groups and a combined administration group with the antibody-drug conjugate (2) and alpelisib, and an ABS administration group as a control group were established.

[4] = tested on: KPL-4 cells; test: Antitumor test (4): nude mice with subcutaneously transplanted KPL-4 cells; format: in vivo, human; details: single administration; tucatinib 100 mg/kg orally once a day, five times a week, two weeks
Experimental: as §1, §2, §3
(§4) Everolimus was suspended in 30% propylene glycol and 5% Tween 80, and orally administered at a liquid volume of 10 mL/kg. Taselisib was suspended in 0.5% methyl cellulose and 0.2% Tween 80, and orally administered at a liquid volume of 10 mL/kg. Abemaciclib was suspended in 1% hydroxyethyl cellulose and 0.1% antifoam/25 mM phosphate buffer, pH2, and orally administered at a liquid volume of 10 mL/kg.

[5] = tested on: NCI-N87 cells; test: Antitumor test (6): nude mice with subcutaneously transplanted NCI-N87 cells; format: in vivo, human; details: single administration; tucatinib 100 mg/kg once a day, five times a week, two weeks
Experimental: as §1, §2, §3, §4

[6] = tested on: MDA-MB-453 cells; test: Antitumor test (5): nude mice with subcutaneously transplanted MDA-MB-453 cells; format: in vivo, human; details: single administration; tucatinib 100 mg/kg once a day, five times a week, three weeks
Experimental: as §1, §2, §3, §4

[7] = tested on: COLO201 cells; test: Antitumor test (3): nude mice with subcutaneously transplanted COLO201 cells; format: in vivo, human; details: single administration; regorafenib 10 mg/kg orally once a day, five times a week, three weeks
Experimental: as §1, §2, §3, §4

[8] = tested on: JIMT-1 cells; test: Antitumor test (2): nude mice with subcutaneously transplanted JIMT-1 cells; format: in vivo, human; details: single administration; everolimus 5 mg/kg once a day, five times a week, seven times in total
Experimental: as §1, §2, §3, §4

[9] = tested on: MDA-MB-453 cells; test: Antitumor test (1): nude mice with subcutaneously transplanted MDA-MB-453 cells; format: in vivo, human; details: single administration, five times a week
Experimental: as §1, §2, §3, §4
Everolimus was administered once a day, five times a week, at a dose of 5 mg/kg for 3 weeks. Taselisib was administered once a day, five times a week, at a dose of 5 mg/kg for 3 weeks. Abemaciclib was administered once a day, five times a week, at a dose of 30 mg/kg for 2 weeks.

[10] = tested on: NCI-N87 cell line; format: cell-based, human; details: 6 days culture, >0 synergistic, 0 additive, <0 antagonistic
Experimental: The human gastric cancer cell line NCI-N87 purchased from ATCC was used for evaluation. To a 1536-well cell culture plate, erlotinib (hydrochloride), poziotinib, mubritinib, brigatinib, or BIBF1120 prepared with dimethyl sulfoxide (DMSO) to concentrations of 2 mM, 400 μM, 80 μM, 16 μM, 3.2 μM, and 640 nM, or DMSO was added at 25 nL/well. […] Subsequently, NCI-N87 cells suspended with an RPMI1640 Medium containing 10% fetal bovine serum to a concentration of 4×10^4 cells/mL were seeded at 2.5 μL/well, and cultured at 37° C. under 5% CO2 for 6 days.
(§5) After culturing, a solution obtained by diluting CellTiter-Glo 2.0 Assay (Promega Corporation) with an equivalent amount of Glo Lysis buffer, 1×(Promega Corporation) was added at 2 μL/well, and incubation was performed at room temperature for 1 hour, and luminescence intensity was then measured for each well.
(§6) Cell growth inhibition rate (%) was calculated by using the following calculation expression.
(§7) T: Mean luminescence intensity of wells with specimen B: Mean luminescence intensity of wells with DMSO and medium C: Mean luminescence intensity of wells with DMSO and cells
(§8) Sigmoid fitting with Genedata Screener Analyzer Version 14 (Genedata AG, hereinafter referred to as Screener) was performed for concentration-dependent transition of cell growth inhibition rates under each of combined use conditions.

[11] = tested on: BxPC-3 cell line; format: cell-based, human; details: combined with mubritinib, 6 days culture, >0 synergistic, 0 additive, <0 antagonistic
Experimental: as §6, §7, §8, §5

[12] = tested on: KPL-4 cell line; format: cell-based, human; details: 6 days culture, >0 synergistic, 0 additive, <0 antagonistic
Experimental: as §6, §7, §8

[13] = tested on: EBC-1 cell line; format: cell-based, human; details: combined with mubritinib, 6 days culture, >0 synergistic, 0 additive, <0 antagonistic
Experimental: as §6, §7, §8

[14] = tested on: 786-0 cells; test: Antitumor test (8): nude mice with subcutaneously transplanted 786-0 cells; format: in vivo, human; details: single administration
Experimental: as §1, §2, §3
Suspended in 100% Matrigel were 786-0 cells, a human kidney cancer cell line, purchased from ATCC, and 4×10^6 cells were subcutaneously transplanted to the right flank of each female nude mouse, and the mice were randomly grouped 19 days after the transplantation (Day 0). […] Cabozantinib was administered once a day, five times a week, 20 times in total, at a dose of 40 mg/kg.

## antibody-drug conjugate (2): anti-HER3 antibody (SEQ ID NO: 3 and 4) conjugated to the drug-linker via thioether bond; DAR 7 to 8
[1]; antibody-drug conjugate (2) 10 mg/kg iv once a week, three weeks (Days 0, 7, 14)
  tumor growth inhibition (TGI): 67%
[2]; antibody-drug conjugate (2) 1 mg/kg iv once a week, three weeks (Days 0, 7, 14), grouped 11 days after transplantation
  tumor growth inhibition (TGI): 54%
[3]; antibody-drug conjugate (2) 1 mg/kg iv once a week, three weeks (Days 0, 7, 14), grouped 7 days after transplantation
  tumor growth inhibition (TGI): 68%

## Cc1cc(Nc2ncnc3ccc(NC4=NC(C)(C)CO4)cc23)ccc1Oc1ccn2ncnc2c1 [tucatinib]
[4]
  tumor growth inhibition (TGI): 78%
[5]
  tumor growth inhibition (TGI): 65%
[6]
  tumor growth inhibition (TGI): 36%

## CNC(=O)c1cc(Oc2ccc(NC(=O)Nc3ccc(Cl)c(C(F)(F)F)c3)c(F)c2)ccn1 [regorafenib]
[7]
  tumor growth inhibition (TGI): 81%

## CO[C@H]1C[C@@H]2CC[C@@H](C)[C@@](O)(O2)C(=O)C(=O)N2CCCC[C@H]2C(=O)O[C@H]([C@H](C)C[C@@H]2CC[C@@H](OCCO)[C@H](OC)C2)CC(=O)[C@H](C)/C=C(\C)[C@@H](O)[C@@H](OC)C(=O)[C@H](C)C[C@H](C)/C=C/C=C/C=C/1C [everolimus]
[8]
  tumor growth inhibition (TGI): 52%
[9]; everolimus 5 mg/kg orally once a day, 3 weeks, BALB/c nude mice, day of effect determination
  tumor growth inhibition (TGI): 64%

## CC(=O)c1c(C)c2cnc(Nc3ccc(N4CCNCC4)cn3)nc2n(C2CCCC2)c1=O [palbociclib]
[2]; palbociclib 50 mg/kg orally once a day, five times a week, three weeks from Day 0
  tumor growth inhibition (TGI): 72%

## CCOc1cc2ncc(C#N)c(Nc3ccc(OCc4ccccn4)c(Cl)c3)c2cc1NC(=O)/C=C/CN(C)C [neratinib]
[1]; neratinib 20 mg/kg orally once a day, five times a week, two weeks, day of effect determination
  tumor growth inhibition (TGI): 84%

## Cc1nc(NC(=O)N2CCC[C@H]2C(N)=O)sc1-c1ccnc(C(C)(C)C(F)(F)F)c1 [alpelisib]
[3]; alpelisib 25 mg/kg orally once a day, five times a week, three weeks from Day 0
  tumor growth inhibition (TGI): 56%

## Cc1nc(-c2cn3c(n2)-c2ccc(-c4cnn(C(C)(C)C(N)=O)c4)cc2OCC3)n(C(C)C)n1 [taselisib]
[9]; taselisib 5 mg/kg orally once a day, 3 weeks
  tumor growth inhibition (TGI): 67%

## CC[C@@]1(O)C(=O)OCc2c1cc1n(c2=O)Cc2c-1nc1cc(F)c(C)c3c1c2[C@@H](NC(=O)CO)CC3 [Compound (1)]
[10]; combined with BIBF1120 (nintedanib)
  Synergy Score, combination with BIBF1120: −0.44
[10]; combined with mubritinib
  Synergy Score, combination with Mubritinib: −0.45
[10]; combined with poziotinib
  Synergy Score, combination with Poziotinib: −0.53
[11]
  Synergy Score, combination with Mubritinib: −0.40
[12]; combined with brigatinib
  Synergy Score, combination with Brigatinib: −0.02
[12]; combined with poziotinib
  Synergy Score, combination with Poziotinib: −0.38
[13]
  Synergy Score, combination with Mubritinib: −0.60

## COc1cc2nccc(Oc3ccc(NC(=O)C4(C(=O)Nc5ccc(F)cc5)CC4)cc3)c2cc1OC [cabozantinib]
[14]; cabozantinib 40 mg/kg once a day, five times a week, 20 times in total
  tumor growth inhibition (TGI): 67%

## CCN1CCN(Cc2ccc(Nc3ncc(F)c(-c4cc(F)c5nc(C)n(C(C)C)c5c4)n3)nc2)CC1 [abemaciclib]
[9]; abemaciclib 30 mg/kg orally once a day, 2 weeks
  tumor growth inhibition (TGI): 68%

B1: antibody-drug conjugate (3): anti-CDH6 antibody (SEQ ID NO: 9 residues 20-471, SEQ ID NO: 10 residues 21-233) conjugated to the drug-linker via thioether bond; DAR 7 to 8 (conjugate, chains of the INN, looked up)
VH: EVQLVQSGAEVKKPGASVKVSCKASGYTFTRNFMHWVRQAPGQGLEWMGWIYPGDGETEYAQKFQGRVTITADTSTSTAYMELSSLRSEDTAVYYCARGVYGGFAGGYFDFWGQGTLVTVSS
VL: DIQMTQSPSSLSASVGDRVTITCKASQNIYKNLAWYQQKPGKAPKLLIYDANTLQTGVPSRFSGSGSGSDFTLTISSLQPEDFATYFCQQYYSGWAFGQGTKVEIK
modifications: deruxtecan-type drug-linker, DAR 7-8
[14]; antibody-drug conjugate (3) 10 mg/kg iv on Day 0
  tumor growth inhibition (TGI): 71%
